Legend:
[1] = target: T1, soybean lipoxygenase (LOX-1) (Glycine max, UniProt P08170); settings: % inhibition at 100 µM; cited from earlier work
T1 construct: purchased Sigma Chemical, Co. (St Louis, MO, USA)
T1 sequence (P08170 1-839): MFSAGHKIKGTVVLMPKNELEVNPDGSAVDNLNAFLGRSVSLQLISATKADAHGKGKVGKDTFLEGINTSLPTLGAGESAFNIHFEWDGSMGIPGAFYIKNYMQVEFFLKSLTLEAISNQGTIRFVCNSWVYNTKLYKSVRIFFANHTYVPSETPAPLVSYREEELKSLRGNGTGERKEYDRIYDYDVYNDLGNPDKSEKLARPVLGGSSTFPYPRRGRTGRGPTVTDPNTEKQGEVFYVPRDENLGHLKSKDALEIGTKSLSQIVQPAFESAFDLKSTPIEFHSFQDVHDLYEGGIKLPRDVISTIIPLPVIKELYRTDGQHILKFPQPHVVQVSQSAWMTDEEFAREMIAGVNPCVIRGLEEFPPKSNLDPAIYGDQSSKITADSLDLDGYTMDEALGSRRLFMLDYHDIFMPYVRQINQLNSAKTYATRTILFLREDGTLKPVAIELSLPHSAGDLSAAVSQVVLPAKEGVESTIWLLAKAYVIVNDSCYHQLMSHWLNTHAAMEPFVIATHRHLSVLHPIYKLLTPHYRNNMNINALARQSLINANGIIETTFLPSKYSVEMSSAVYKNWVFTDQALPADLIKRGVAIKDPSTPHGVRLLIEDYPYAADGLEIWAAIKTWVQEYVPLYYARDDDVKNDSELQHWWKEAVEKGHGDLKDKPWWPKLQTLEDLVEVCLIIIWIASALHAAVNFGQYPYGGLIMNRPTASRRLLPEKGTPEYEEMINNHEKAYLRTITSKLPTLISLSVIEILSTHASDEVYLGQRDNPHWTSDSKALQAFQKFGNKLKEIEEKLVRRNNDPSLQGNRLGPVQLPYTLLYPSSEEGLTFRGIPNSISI

ovine COX-2 = target: T2, ovine COX-2 (Ovis aries, UniProt P79208); assay: Cyclooxygenase-2 inhibition study; assay type: biochemical
T2 construct: purchased Cayman (USA)
T2 sequence (P79208 17-603): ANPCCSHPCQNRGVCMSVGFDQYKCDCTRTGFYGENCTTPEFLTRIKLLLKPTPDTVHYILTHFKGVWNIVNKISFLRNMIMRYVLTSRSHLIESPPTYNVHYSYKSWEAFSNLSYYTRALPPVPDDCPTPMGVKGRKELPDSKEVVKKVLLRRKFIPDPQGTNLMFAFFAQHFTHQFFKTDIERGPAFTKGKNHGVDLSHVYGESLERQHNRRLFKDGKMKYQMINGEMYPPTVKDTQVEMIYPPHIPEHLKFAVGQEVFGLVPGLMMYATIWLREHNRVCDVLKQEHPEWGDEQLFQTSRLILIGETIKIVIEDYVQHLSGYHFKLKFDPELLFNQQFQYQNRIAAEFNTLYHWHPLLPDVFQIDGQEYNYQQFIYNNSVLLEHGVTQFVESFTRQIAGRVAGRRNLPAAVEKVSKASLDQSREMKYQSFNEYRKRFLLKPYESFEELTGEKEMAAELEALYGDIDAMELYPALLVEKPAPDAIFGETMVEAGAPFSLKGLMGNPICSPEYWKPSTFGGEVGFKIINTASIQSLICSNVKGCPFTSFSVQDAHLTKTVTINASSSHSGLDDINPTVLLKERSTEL
Procedure: The in vitro study of cyclooxygenase (COX) activity was determined by using arachidonic acid (AA) as the substrate and N,N,N’,N’-tetramethylphenylenediamine (TMPD) as the co-substrate. […] The absorption due to the spontaneous oxidation of TMPD was subtracted from the initial rate of oxidation observed in the presence of AA. […] A blank determination was used first to serve as a negative control. Indomethacin was used as a reference COX-2 inhibitor (positive control).
The role of COX-2 in neurodegenerative diseases has been reported, and COX-2 inhibition is considered of high importance as a therapeutic tool. The designed derivatives were tested for their COX-2 inhibition activity on the ovine COX-2 enzyme. […] Indomethacin was used as a reference compound.

[2] = cited from earlier work

Question: Which “LOX inhibition (%)” value [1] does the source give for `O=C(O)/C=C/C=C/c1ccccc1` [Compound 23] here?
Answer: Its value is 24%.

Question: What about the inhibition at 100 µM (ovine COX-2) of the same compound?
Answer: The inhibition at 100 µM was 9%.

Question: And the “AAPH inhibition (%, at 100 µM)” value [2]?
Answer: The value was 30%.

From publication PMC11348465, “Pharmacochemical Study of Multitarget Amino Acids’ Hybrids: Design, Synthesis, In vitro, and In silico Studies” (Medicinal Chemistry (Shariqah (United Arab Emirates), 2024)
